Reference: patent publication US20090018021A1, “Methyl jasmonate decreases fruit detachment force of grapes” (Regents of the University of California, priority 2006, published 2009)
Values joined by “and” are separate entries in the source; they are usually repeats but may differ in a detail not shown here. Equal values may be shown once. Blank lines part the entries; values can stand above or below the compound they belong to.

Assays:
Merlot grapevines = experiment: Fruit detachment force and fruit drop, Merlot; format: in vivo, grape; details: 4500 ppm, 14 DAT
Method: (§1) An experiment was conducted in a nine-year-old vineyard of own-rooted Cabernet Sauvignon and Merlot grapevines on a vertical two-wire […]. Whole vines were sprayed to runoff on Day 0 with solutions containing 0 or 4500 ppm MeJA and an adjuvant (Latron B-1956; 0.2% v/v) in a completely randomized design replicated four times. On 14 DAT, four representative clusters were collected from each of four vines and ten rachis sections were prepared from each cluster. Fruit detachment force was measured from berries attached to each section, as described previously. Condition of the detached berries was noted, and all the berries from each cluster were counted, weighed, and homogenized in a blender. The juice from each sample was filtered and soluble solids, pH, and titratable acidity of the filtered juices were determined using standard methods. All data were subjected to analysis of variance using the general linear models procedure (PROC GLM) of SAS statistical software (SAS Inst., Cary, N.C.). Duncan's New Multiple Range Test was used to separate treatment means.

[1] = tested on: Thompson Seedless grapevines; experiment: Fruit drop (berry abscission) from treated vines, Thompson Seedless experiment; format: in vivo, grape; details: for Percent fruit drop (dry wt/dry wt): 10 days after treatment; for Berry abscission observed in plots: ten days after treatment, all 26 solutions compared
Method: (§2) An experiment was conducted in a 40-year-old Thompson Seedless vineyard at the Kearney Agricultural Center in Parlier, California. The site was typical of conventional raisin vineyards, with head-trained, cane-pruned vines on a two-wire T-shaped trellis with a 0.6 m cross arm. The soil was a deep Hanford fine sandy loam.
(§3) The vineyard was divided into plots consisting of vine sections (within-row spaces between two adjacent vine trunks) of uniform appearance and crop load. Each plot was surrounded by guard vines within and between rows. Treatments consisted of 26 different solutions made up of various potential abscission agents (Table 1). Because the concentrations varied widely between agents, each solution was considered a different treatment, and a randomized complete block design was used. All treatments, except for coronatine, were replicated four times. Due to a lack of material, coronatine was only applied to two plots; therefore, data from that treatment were not subjected to statistical analysis though observations were made.
(§4) Composite berry samples were collected weekly to monitor soluble solids accumulation by the fruits. Samples consisted of about 100 berries collected from the top, middle and bottom of about 33 randomly selected clusters. Berries were homogenized in a blender, their juice filtered, and soluble solids measured with a temperature compensating digital refractometer (Palette 101, Atago, Farmingdale, N.Y.). Once the fruits amassed sufficient soluble solids for raisin making (>19 Brix), abscission agents were dissolved or dispersed in water with adjuvant added (0.1%, v/v, Latron B-1956™, Britz, Parlier, Calif.) except MeJA solutions which contained 0.2% adjuvant. Control solutions contained the adjuvant only (0.2% v/v). Immediately after their preparation, solutions were applied to the vines of each plot with a gasoline-powered back-pack sprayer (Solo, Newport News, R.I.) until runoff. Vines within harvest pruned (HP) plots were not treated with any solutions, but their canes were severed on the same day that solutions were applied.
(§5) The soil surface within each plot was covered with ground cloth to collect any berries that might fall from the canopy. […] In those plots and in the control and HP plots, all abscised berries were collected from the ground cloth into paper bags and placed in a forced air oven (60 C) until they reached a constant weight. Clusters of grapes on vines from all the plots were carefully harvested and brought into a laboratory where fruit detachment force (FDF) measurements were made. Any grapes that detached from the vines at harvest were considered to be retained by the vine until harvest. These berries were collected into paper bags and placed in a forced air oven to dry.
(§6) Three representative clusters were selected from all the clusters of each plot and ten rachis sections from the top, middle, and bottom of the three clusters were removed by cutting the rachis with shears. A berry from each section was placed in a jig attached to a force gauge (DPS-11, Imada Inc., Northbrook, Ill.). The rachis was pulled parallel to the fruit axis until it separated from the fruit. The force required to detach each berry from the rachis in grams-force was recorded as the fruit detachment force. The condition of each detached berry was noted, and the berries were placed in paper bags along with all the other berries that were picked from that plot. These berries were also placed in the forced air oven and dried to a constant weight. The proportion of berries that abscised from the vine was calculated on a dry weight basis by dividing the dry weight of the abscised berries in each plot by the combined weight of the retained and abscised berries in that plot. Finally, canopy damage in each plot was inspected visually and assigned a rating of 0 (no obvious foliar damage), 1 (appearance of slight foliar damage), 2 (appearance of moderate foliar damage), or 3 (appearance of severe foliar damage).

citrus trees = details: cited from earlier work
[2] = tested on: Thompson Seedless grapevines; experiment: Fruit detachment force (FDF), Thompson Seedless experiment; format: in vivo, grape; details: for FDF: ten days after treatment
Method: as §2, §3, §4, §5, §6

Crimson Seedless grapes = experiment: Abscission and fruit detachment force, Crimson Seedless experiment; format: in vivo, grape
Method: An experiment was conducted in a fourteen-year-old vineyard of own-rooted Crimson Seedless grapes on an open-gable trellis. Individual clusters of grapes were sprayed to runoff with one of four solutions containing 0, 1125, 2250, or 4500 ppm MeJA and an adjuvant (0.2% v/v, Latron-B 1956). On Day 0, treatments were applied in a randomized, complete block design with clusters as observational units, and vines as blocks. Each spray treatment was applied to 4 replicate clusters. During treatment, clusters were surrounded with plastic shields to protect other clusters from overspray and runoff. The day after treatment, each cluster was enclosed in a plastic mesh bag to collect any berries that might abscise. Clusters were harvested 14 DAT. Ten rachis sections were collected from each cluster and FDF was measured as described previously. The condition of the detached berries was noted, and the berries from each cluster were then separately weighed and homogenized in a blender. Juices were filtered and soluble solids, pH, and titratable acidity of the filtered juices were determined using standard methods.
All data were subjected to analysis of variance using the general linear models procedure (PROC GLM) of SAS statistical software (SAS Inst., Cary, N.C.). Duncan's New Multiple Range Test was used to separate treatment means. […]

[3] = tested on: Cabernet Sauvignon grapevines; experiment: Fruit detachment force and fruit drop, Cabernet Sauvignon; format: in vivo, grape; details: 4500 ppm, 14 DAT
Method: as §1

[4] = tested on: Thompson Seedless grapevines; experiment: Visual canopy damage rating, Thompson Seedless experiment; format: in vivo, grape; details: ten days after treatment
Excerpt: as §3
Composite berry samples were collected weekly to monitor soluble solids accumulation by the fruits. Samples consisted of about 100 berries collected from the top, middle and bottom of about 33 randomly selected clusters. […] Control solutions contained the adjuvant only (0.2% v/v). Immediately after their preparation, solutions were applied to the vines of each plot with a gasoline-powered back-pack sprayer (Solo, Newport News, R.I.) until runoff. Vines within harvest pruned (HP) plots were not treated with any solutions, but their canes were severed on the same day that solutions were applied.
as §6

[5] = tested on: Thompson Seedless grapevines; experiment: Bud break and shoot growth six months after treatment, Thompson Seedless experiment; format: in vivo, grape; details: 2000 ppm, evaluated six months later
Method: Each plot was inspected again six months later when bud break and shoot growth were evaluated. To evaluate bud break, plots received one of the following scores; 0=shoots emerged from 0-20% of nodes; 1=shoots emerged from 20-40% of nodes, 2=shoots emerged from 40-60% of nodes, 3=shoots emerged from 60-80% of nodes, or 4=shoots emerged from 80-100% of nodes. Shoot growth in each plot was also evaluated on a five-point scale, based on the proportion of shoots that had progressed to the five-leaf stage (Eichorn-Lorenz stage 12; Eichorn and Lorenz, Phaenologische Entwicklungsstadien der Rebe. Nachrichtenbl. Deut. Pflanzenschutzd. (Braunschweig) 29:119-120 (1977)).

Structure (SMILES): CC/C=C\CC1C(=O)CCC1CC(=O)OC (stereo not drawn) [MeJA, methyl jasmonate]
Fruit drop (appeared, not measured) (Merlot grapevines): less than 10% | Reduction of FDF compared to non-treated vines (Merlot grapevines): 75% | Percent fruit drop (dry wt/dry wt) ([1]; 45 ppm): 0.26 c percent | Percent fruit drop (dry wt/dry wt) ([1]; 450 ppm): 6.37 c percent | Percent fruit drop (dry wt/dry wt) ([1]; 4500 ppm): 50% and 50.71 a percent | Berry abscission observed in plots [1]: berry abscission was only observed in plots treated with MeJA or coronatine | Abscised berries observed ([1]; within 2 days after treatment, ≧450 ppm (2 mM)): abscised berries were observed | Fruit on treated trees dropped (citrus trees; citrus trees, 2250-4500 ppm, within 10 DAT (Hartmond et al. 2000)): about 20% | FDF less than fruit from non-treated trees (citrus trees; citrus trees, solutions of 2250-4500 ppm (Hartmond et al. 2000)): 75-80% | FDF ([2]; 45 ppm): 0.169 fg·kg | FDF ([2]; 450 ppm): 0.124 gh kg | FDF ([2]; 2250 ppm): 0.079 hi kg | FDF ([2]; 4500 ppm): 0.052 i kg | Reduction of FDF compared with cane severance ([2]; any concentration ≧450 ppm, 10 DAT): reduced FDF at least as effectively as cane severance | Reduction of FDF compared to non-treated vines ([2]; lowest concentration tested, 10 DAT): reduced FDF by half | FDF of berries retained after harvest versus concentration applied (Crimson Seedless grapes; 14 DAT, 0-4500 ppm): FDF decreased as a linear function of the concentration of MeJA applied | Abscission of grapes from clusters (Crimson Seedless grapes; within 14 DAT, clusters sprayed with 1125, 2250 or 4500 ppm): did not abscise from any clusters | Fruit drop (appeared, not measured) [3]: less than 10% | Reduction of FDF compared to non-treated vines [3]: 66%

Appearance of shoots [5]: cupped leaves and short internodes
Structure (SMILES): CC1(C)OC[C@@H]2O[C@@]3(C(=O)O)OC(C)(C)O[C@H]3[C@@H]2O1 [Dikegulac]
Canopy damage (0-3; none-severe) ([4]; 20 ppm): 1.00 cd | Canopy damage (0-3; none-severe) ([4]; 200 ppm): 1.25 bcd | Canopy damage (0-3; none-severe) ([4]; 1000 ppm): 0.5 | Canopy damage (0-3; none-severe) ([4]; 2000 ppm): 1.50 bcd | Leaf loss expected (citrus trees; citrus, at certain times of the season (Pozo et al, 2004)): (Pozo et al, 2004). Expect 15-20% | FDF ([2]; 20 ppm): 0.291 abc kg | FDF ([2]; 200 ppm): 0.27 ab kg | FDF ([2]; 1000 ppm): 0.288 ab kg | FDF ([2]; 2000 ppm): 0.176 efg kg

Structure (SMILES): CC[C@H]1C=C(C(=O)N[C@@]2(C(=O)O)C[C@@H]2CC)[C@H]2CCC(=O)[C@H]2C1 [Coronatine]
Fruit drop (observation, not statistically analysed) ([1]; 200 ppm, two plots only, 10 DAT): fruit drop appeared similar to that of vines treated with 2250 ppm MeJA | Berry abscission observed in plots [1]: berry abscission was only observed in plots treated with MeJA or coronatine | Defoliation expected (citrus trees; citrus (Burns et al., 2003)): chlorosis. Expect ~10% defoliation.

Structure (SMILES): Cc1n[nH]c(Cl)c1[N+](=O)[O-] [CMNP, 5-chloro-3-methyl-4-nitro-1H-pyrazole]
Canopy damage (0-3; none-severe) ([4]; 20 ppm): 1.25 cde | Canopy damage (0-3; none-severe) ([4]; 200 ppm): 1.25 bcd | Canopy damage (0-3; none-severe) ([4]; 1000 ppm): 1.75 bc | Canopy damage (0-3; none-severe) ([4]; 2000 ppm): 2.75 a | FDF ([2]; 20 ppm): 0.244 cd kg | FDF ([2]; 200 ppm): 0.156 fg·kg | FDF ([2]; 1000 ppm): 0.161 fg·kg | FDF ([2]; 2000 ppm): 0.182 ef kg

Structure (SMILES): NC1(C(=O)O)CC1 [VBC-30069]
FDF ([2]; 50 ppm): 0.261 cd kg | FDF ([2]; 150 ppm): 0.266 abcd kg
